Where two headings read alike, the source gives them in different places.
Tests used:
type II (β) receptors = details: activity of estradiol set at 100; cited from earlier work
Lactobacillus plantarum = assay: metabolism of soybean extract isoflavones in microbial culture, HPLC assay; format: in vitro ADME
Protocol: (§1) At each of these times, a sample is removed from the microbial cultures, diluted with an equal volume of methanol and then filtered. In each case, the methanolic solution is analyzed by high performance liquid chromatography. […] In this way, the contents of the aglycone and glycosylated forms in the metabolized extract are calculated with respect to the glycosylated forms (100%) in the initial extract.

[1] = system: Lactobacillus acidophilus; assay: as above; format: in vitro ADME
Protocol: as §1

Lactobacillus brevis = assay: as above; format: in vitro ADME
Protocol: as §1

[2] = system: Propionibacterium acidipropionici; assay: as above; format: in vitro ADME
Protocol: as §1

Pediococcus acidilactici = assay: as above; format: in vitro ADME
Protocol: as §1

Lactobacillus rhamnosus = assay: as above; format: in vitro ADME
Protocol: as §1

Enterococcus faecium = assay: as above; format: in vitro ADME
Protocol: as §1

Lactobacillus casei = assay: as above; format: in vitro ADME
Protocol: as §1

[3] = system: Streptococcus thermophilus; assay: as above; format: in vitro ADME
Protocol: as §1

osteoclastic activity = details: cited from earlier work
bone = details: cited from earlier work
[4] = selecting isoflavone-metabolizing microorganisms; details: microbial culture with soybean extract
Protocol: At each of these times, a sample is removed from the microbial cultures, diluted with an equal volume of methanol and then filtered. In each case, the methanolic solution is analyzed by high performance liquid chromatography. High performance liquid chromatography is used to assay daidzine, genistine, daidzein and genistein in the initial extract and in the media metabolized by the different microorganisms. In this way, the contents of the aglycone and glycosylated forms in the metabolized extract are calculated with respect to the glycosylated forms (100%) in the initial extract.

Q: For `O=c1c(-c2ccc(O)cc2)coc2cc(O)ccc12` [Daidzein, daidzein], which estrogenic activity (type II (β) receptors) is on record?
A: The estrogenic activity was 0.013.

Q: What does the source list for `O=c1c(-c2ccc(O)cc2)coc2cc(O[C@@H]3O[C@H](CO)[C@@H](O)[C@H](O)[C@H]3O)ccc12` [Daidzine, daidzine]?
A: content in the metabolized extract with respect to the glycosylated forms (100%) in the initial extract (Lactobacillus plantarum): 75%; content in the metabolized extract with respect to the glycosylated forms (100%) in the initial extract [1]: 16%; content in the metabolized extract with respect to the glycosylated forms (100%) in the initial extract (Lactobacillus brevis): 16%; content in the metabolized extract with respect to the glycosylated forms (100%) in the initial extract [2]: 33%; content in the metabolized extract with respect to the glycosylated forms (100%) in the initial extract (Pediococcus acidilactici): 77%; content in the metabolized extract with respect to the glycosylated forms (100%) in the initial extract (Lactobacillus rhamnosus): 26%; content in the metabolized extract with respect to the glycosylated forms (100%) in the initial extract (Enterococcus faecium; 72 h): 0.1%; content in the metabolized extract with respect to the glycosylated forms (100%) in the initial extract (Lactobacillus casei): 80%; content in the metabolized extract with respect to the glycosylated forms (100%) in the initial extract [3]: 65%

Q: What does the source list for `O=c1c(-c2ccc(O)cc2)coc2cc(O)cc(O)c12` [Genistein, genistein]?
A: content in the metabolized extract with respect to the glycosylated forms (100%) in the initial extract (Lactobacillus plantarum; Lactobacillus plantarum culture, time not given): 44%; content in the metabolized extract with respect to the glycosylated forms (100%) in the initial extract ([1]; Lactobacillus acidophilus culture, time not given): 83%; content in the metabolized extract with respect to the glycosylated forms (100%) in the initial extract (Lactobacillus brevis; Lactobacillus brevis culture, time not given): 81%; content in the metabolized extract with respect to the glycosylated forms (100%) in the initial extract ([2]; Propionibacterium acidipropionici culture, time not given): 72%; content in the metabolized extract with respect to the glycosylated forms (100%) in the initial extract (Pediococcus acidilactici; Pediococcus acidilactici culture, time not given): 30%; content in the metabolized extract with respect to the glycosylated forms (100%) in the initial extract (Lactobacillus rhamnosus; Lactobacillus rhamnosus culture, time not given): 85%; content in the metabolized extract with respect to the glycosylated forms (100%) in the initial extract (Enterococcus faecium; Enterococcus faecium culture, cultured 24, 48 and 72 hours, time not given): 80%; content in the metabolized extract with respect to the glycosylated forms (100%) in the initial extract (Lactobacillus casei; Lactobacillus casei culture, time not given): 13%; content in the metabolized extract with respect to the glycosylated forms (100%) in the initial extract ([3]; Streptococcus thermophilus culture, time not given): 25%; osteoclastic activity (osteoclastic activity): inhibits osteoclastic activity; estrogenic activity (type II (β) receptors): 0.084

Q: Which “content in the metabolized extract with respect to the glycosylated forms (100%) in the initial extract” value (“content … (100%) in the initial extract” below) (Lactobacillus plantarum; Lactobacillus plantarum) does the source give for `O=c1c(-c2ccc(O)cc2)coc2cc(O[C@@H]3O[C@H](CO)[C@@H](O)[C@H](O)[C@H]3O)cc(O)c12` [Genistine, genistine] here?
A: The value was 53%.

Q: And the “content … (100%) in the initial extract” value ([1]; Lactobacillus acidophilus)?
A: The value was 6.5%.

Q: What about the “content … (100%) in the initial extract” value (Lactobacillus brevis; Lactobacillus brevis) of the same compound?
A: The value was 2%.

Q: What about the “content … (100%) in the initial extract” value ([2]; Propionibacterium acidipropionici) of the same compound?
A: The value was 12%.

Q: And the “content … (100%) in the initial extract” value (Pediococcus acidilactici; Pediococcus acidilactici)?
A: The value was 63%.

Q: And the “content … (100%) in the initial extract” value (Lactobacillus rhamnosus; Lactobacillus rhamnosus)?
A: The value was 5%.

Q: And the “content … (100%) in the initial extract” value (Enterococcus faecium; Enterococcus faecium, 72 h)?
A: Its value is 5.5%.

Q: And the “content … (100%) in the initial extract” value (Lactobacillus casei; Lactobacillus casei)?
A: The value was 85%.

Q: What about the “content … (100%) in the initial extract” value ([3]; Streptococcus thermophilus) of the same compound?
A: The value was 73%.

Q: Which estrogenic activity (type II (β) receptors) does the source give for `Oc1ccc([C@H]2COc3cc(O)ccc3C2)cc1` [equol, reference compound] here?
A: The estrogenic activity was 0.61.

Q: Which bone gain (bone; 500 to 600 mg per day, 40 menopausal women suffering from osteoporosis) does the source give for `CC(C)Oc1ccc2c(=O)c(-c3ccccc3)coc2c1` [ipriflavone] here?
A: The bone gain was “bone gain at the level of L1-L5, with a return to normal in 12 months”.

Q: What about the bone losses (bone; women being treated with LHRH agonists) of the same compound?
A: Its bone losses is “possible to avoid bone losses”.

Q: With Lactobacillus acidophilus as the compound, how does the “ranking of strains by isoflavone-metabolizing activity” value [4] read?
A: The value was “the most active strains”.

Q: For estradiol [reference compound], which estrogenic activity (type II (β) receptors) is on record?
A: The estrogenic activity was 100.

Reference: patent US20020114786A1, “Pharmaceutical preparations comprising soybean isoflavone extracts and probiotic microogranisms” (priority 2000, published 2002)
